Reference: patent US12473250B2, “Molecular design of new antibiotics and antibiotic adjuvants against MCR strains” (priority 2019, dated 2025)
“Also recorded” adds a separate entry of the source.

Assays:
[1] = test system: colistin resistant MCR (+) E. Coli strains; assay: Synergy study: colistin MIC in the presence of compound; assay type: cell-based
Procedure, shortened: (§1)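 CLSI broth microdilution with colistin and LC compound added in equal amounts, 2-fold serial dilution, alone or combined at fixed synergy concentration. MIC taken as lowest concentration with no visible growth after 24 hours of incubation.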

[2] = test system: colistin resistant MCR (−) E. Cloacae strain 7023456439; assay: as above; assay type: cell-based; settings: strain 7023456439 E. Cloacae
Procedure, shortened: as §1

[3] = test system: colistin resistant MCR (−) E. Coli strains; assay: as above; assay type: cell-based
Procedure, shortened: as §1

[4] = test system: KLPN multi-drug resistant strains; assay: Synergy of LC100 with colistin against multi-drug resistant strains (Table 5); assay type: cell-based, Klebsiella pneumonia
Description: The MICs of the individual drugs and LC compound in combinations were determined using the broth microdilution technique as recommended by the CLSI whereby the two anti-microbial agents were added in an equal amount. (e.g.: 50 μL of Colistin: 50 μL of LC compounds). Diluted media containing compounds and antibiotics will be serially diluted 2-fold, and LC compounds and antibiotics alone or in combination will be assayed at fixed synergy concentration. In all cases, the lowest concentration at which no visible growth occurred was be recorded to be the MIC value of individual and combined antibacterial agents. The results were obtained after 24 hours of incubation.

[5] = test system: Gram positive bacteria (SA and MRSA strains); assay: Antimicrobial effect on Gram positive bacteria (Table 8); assay type: cell-based; design: key to antimicrobial effect on Gram positive bacteria: MIC (concentration giving 99% inhibition), concentrations in μg; settings: compound alone
Description: MIC experiments of the antimicrobial agents were determined by a modified broth microdilution method in accordance with the Clinical and Laboratory Standards Institute (CLSI) guidelines using 96 well culture plates. In brief, serial dilutions of all plates were prepared at different concentrations (μg). The inoculum suspension was prepared by adding isolated colonies from a 18-20 hours on TSA plate into phosphate buffer (0.31 mM, pH 7.2) or in water for injection (BBraun) and adjusting the suspension to a turbidity equivalent to 0.5 McFarland Standard. Each well contained a final bacterial concentration of approximately 5×10^5 colony forming units (CFU)/mL. The plate was covered and incubated at 35° C. for 24 hours. […] For the microdilution plates, turbidity in wells can be measured at OD600 using TECAN infinite M200Pro. MIC was determined as […] concentration that gives a 99 percent inhibition.
The antimicrobial activity of the inventive combination was also tested against Gram positive bacteria, including the multi-drug resistant strains, such as MRSA. […] This means the combination of LC100/LC101 with colistin has broad antimicrobial spectrum, being active against both Gram positive and Gram negative bacteria.

MCR-1 protein = biological target: T1, MCR-1 protein (Escherichia coli, UniProt A0A0R6L508); assay: Fluorescence quenching of MCR-1 protein; assay type: binding; settings: autofluorescence at 323 nm; increasing LC100 concentration
T1 construct: purchased Bioprocessing technology institute, A*STAR (Singapore, Singapore)
Description: However, EtBr is membrane impermeable, which means that it can only enter the bacterial cell and bind to DNA and emit fluorescence only when both the bacterial outer and inner membranes are perturbed. […] It is also possible that LC100 may have other targets. One possible target is the MCR-1 protein. To understand the interaction of LC100 and the MCR-1 protein, the fluorescence of MCR-1 protein in the presence of different concentration of LC100 was measured. MCR-1 protein contains several tryptophan residues, and autofluoresces at 323 nm.

[6] = Calcein leakage from large unilamellar vesicles; settings: vesicles of 100 nm, DOPE/DOPG=3/1
Excerpt: FIG. 20 refers to a graph showing calcein leakage of LC100 and LC101 using large unilamellar vesicles of 100 nm. The lipid composition of the vesicle is DOPE/DOPG=3/1, mimicking the bacterial inner membrane. […] Further increase of LC100 or LC101 leads to decrease in the florescence because of a fluorescence quenching effect.

T1 sequence (A0A0R6L508 whole entry): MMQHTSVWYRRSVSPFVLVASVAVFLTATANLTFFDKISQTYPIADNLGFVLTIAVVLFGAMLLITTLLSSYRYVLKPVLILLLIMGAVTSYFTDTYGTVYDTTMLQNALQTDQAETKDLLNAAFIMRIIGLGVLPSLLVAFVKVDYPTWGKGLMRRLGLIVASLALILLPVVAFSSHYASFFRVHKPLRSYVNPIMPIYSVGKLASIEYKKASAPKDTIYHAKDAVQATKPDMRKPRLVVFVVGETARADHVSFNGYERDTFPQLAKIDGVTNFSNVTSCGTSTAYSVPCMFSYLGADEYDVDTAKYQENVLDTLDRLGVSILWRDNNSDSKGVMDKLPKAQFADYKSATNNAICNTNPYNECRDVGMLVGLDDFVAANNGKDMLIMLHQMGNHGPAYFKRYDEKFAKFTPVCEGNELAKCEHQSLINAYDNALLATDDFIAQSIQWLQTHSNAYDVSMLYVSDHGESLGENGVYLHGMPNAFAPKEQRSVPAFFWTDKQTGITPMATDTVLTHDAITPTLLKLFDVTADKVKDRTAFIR

CCN(CC)CCCCOc1ccc(/C=C/C(=O)c2ccc(OCCCCN(CC)CC)c(CC=C(C)C)c2O)cc1 [LC100]
Colistin MIC in the presence of LC100 ([1]; LC100 greater than 5 μg/ml, as low as): 0.0975 µg/mL
concentration at which the compound shows synergy with colistin ([1]; against mcr-1 bacteria): 2 µg/mL
synergy with colistin ([1]; against mcr-1 bacteria, in words): excellent synergy
Colistin MIC in the presence of the compound ([1]; strain 6075066346, MCR(+), compound at 2 μg): 1.56 µg/mL
Colistin MIC in the presence of the compound ([1]; strain 6075066346, MCR(+), compound at 3 μg): 0.78 µg/mL
Colistin MIC in the presence of the compound ([1]; strain 6075066346, MCR(+), compound at 5 μg (Table 2a: 5 ug/ml)): 0.195 µg/mL
Colistin MIC in the presence of the compound ([1]; strain 6075066346, MCR(+), compound at 10 μg (Table 2a: 10 ug/ml)): <0.098 µg/mL
Colistin MIC in the presence of the compound ([1]; strain 6075066346, MCR(+), compound at 10 μg (Table 2a: 10 ug/ml), listed as LC 100): <0.0975 µg/mL
Colistin MIC in the presence of the compound ([1]; strain 6083655967, MCR(+), compound at 2 μg): 1.56 µg/mL
Colistin MIC in the presence of the compound ([1]; strain 6083655967, MCR(+), compound at 3 μg): 0.39 µg/mL
Colistin MIC in the presence of the compound ([1]; strain 6083655967, MCR(+), compound at 5 μg (Table 2a: 5 ug/ml)): 0.195 µg/mL
Colistin MIC in the presence of the compound ([1]; strain 6083655967, MCR(+), compound at 10 μg (Table 2a: 10 ug/ml)): <0.098 µg/mL
Colistin MIC in the presence of the compound ([1]; strain 6083655967, MCR(+), compound at 10 μg (Table 2a: 10 ug/ml), listed as LC 100): <0.0975 µg/mL
Colistin MIC in the presence of the compound ([1]; strain 6103645107, MCR(+), compound at 2 μg): 1.56 µg/mL
Colistin MIC in the presence of the compound ([1]; strain 6103645107, MCR(+), compound at 3 μg): 0.78 µg/mL
Colistin MIC in the presence of the compound ([1]; strain 6103645107, MCR(+), compound at 5 μg (Table 2a: 5 ug/ml)): 0.195 µg/mL
Colistin MIC in the presence of the compound ([1]; strain 6103645107, MCR(+), compound at 10 μg (Table 2a: 10 ug/ml)): <0.098 µg/mL
Colistin MIC in the presence of the compound ([1]; strain 6103645107, MCR(+), compound at 10 μg (Table 2a: 10 ug/ml), listed as LC 100): <0.0975 µg/mL
Colistin MIC in the presence of the compound ([1]; strain 6123520276, MCR(+), compound at 2 μg): 1.56 µg/mL
Colistin MIC in the presence of the compound ([1]; strain 6123520276, MCR(+), compound at 3 μg): 0.78 µg/mL
Colistin MIC in the presence of the compound ([1]; strain 6123520276, MCR(+), compound at 5 μg (Table 2a: 5 ug/ml)): 0.195 µg/mL
Colistin MIC in the presence of the compound ([1]; strain 6123520276, MCR(+), compound at 10 μg (Table 2a: 10 ug/ml)): <0.098 µg/mL
Colistin MIC in the presence of the compound ([1]; strain 6123520276, MCR(+), compound at 10 μg (Table 2a: 10 ug/ml), listed as LC 100): <0.0975 µg/mL
Colistin MIC in the presence of the compound ([1]; strain 7013177695, MCR(+), compound at 2 μg): 1.56 µg/mL
Colistin MIC in the presence of the compound ([1]; strain 7013177695, MCR(+), compound at 3 μg): 0.39 µg/mL
Colistin MIC in the presence of the compound ([1]; strain 7013177695, MCR(+), compound at 5 μg (Table 2a: 5 ug/ml)): 0.195 µg/mL
Colistin MIC in the presence of the compound ([1]; strain 7013177695, MCR(+), compound at 10 μg (Table 2a: 10 ug/ml)): <0.098 µg/mL
Colistin MIC in the presence of the compound ([1]; strain 7013177695, MCR(+), compound at 10 μg (Table 2a: 10 ug/ml), listed as LC 100): <0.0975 µg/mL
Colistin MIC in the presence of the compound ([1]; strain 7023436560, MCR(+), compound at 2 μg): 1.56 µg/mL
Colistin MIC in the presence of the compound ([1]; strain 7023436560, MCR(+), compound at 3 μg): 0.39 µg/mL
Colistin MIC in the presence of the compound ([1]; strain 7023436560, MCR(+), compound at 5 μg (Table 2a: 5 ug/ml)): 0.195 µg/mL
Colistin MIC in the presence of the compound ([1]; strain 7023436560, MCR(+), compound at 10 μg (Table 2a: 10 ug/ml)): <0.098 µg/mL
Colistin MIC in the presence of the compound ([1]; strain 7023436560, MCR(+), compound at 10 μg (Table 2a: 10 ug/ml), listed as LC 100): <0.0975 µg/mL
Colistin MIC in the presence of the compound ([1]; strain 7023444207, MCR(+), compound at 2 μg): 1.56 µg/mL
Colistin MIC in the presence of the compound ([1]; strain 7023444207, MCR(+), compound at 3 μg): 0.39 µg/mL
Colistin MIC in the presence of the compound ([1]; strain 7023444207, MCR(+), compound at 5 μg (Table 2a: 5 ug/ml)): 0.195 µg/mL
Colistin MIC in the presence of the compound ([1]; strain 7023444207, MCR(+), compound at 10 μg (Table 2a: 10 ug/ml)): <0.098 µg/mL
Colistin MIC in the presence of the compound ([1]; strain 7023444207, MCR(+), compound at 10 μg (Table 2a: 10 ug/ml), listed as LC 100): <0.0975 µg/mL
Colistin MIC in the presence of the compound ([2]; compound at 2 μg): <0.0975 µg/mL
Colistin MIC in the presence of the compound ([2]; compound at 5 μg (Table 2a: 5 ug/ml)): 0.195 µg/mL
Colistin MIC in the presence of the compound ([2]; compound at 10 μg (Table 2a: 10 ug/ml)): <0.098 µg/mL
Colistin MIC in the presence of the compound ([2]; compound at 10 μg (Table 2a: 10 ug/ml), listed as LC 100): <0.0975 µg/mL
colistin level to which E. coli became sensitive in the presence of LC100 ([3]; resistant bacteria without mcr-1): < 0.5 µg/mL
Colistin MIC in the presence of the compound ([3]; strain 6083672926, MCR(−), compound at 2 μg): <0.0975 µg/mL
Colistin MIC in the presence of the compound ([3]; strain 6083672926, MCR(−), compound at 5 μg (Table 2a: 5 ug/ml)): 0.195 µg/mL
Colistin MIC in the presence of the compound ([3]; strain 6083672926, MCR(−), compound at 10 μg (Table 2a: 10 ug/ml)): <0.098 µg/mL
Colistin MIC in the presence of the compound ([3]; strain 6083672926, MCR(−), compound at 10 μg (Table 2a: 10 ug/ml), listed as LC 100): <0.0975 µg/mL
Colistin MIC in the presence of the compound ([3]; strain 7023446108, MCR(−), compound at 2 μg): <0.0975 µg/mL
Colistin MIC in the presence of the compound ([3]; strain 7023446108, MCR(−), compound at 5 μg (Table 2a: 5 ug/ml)): 0.195 µg/mL
Colistin MIC in the presence of the compound ([3]; strain 7023446108, MCR(−), compound at 10 μg (Table 2a: 10 ug/ml)): <0.098 µg/mL
Colistin MIC in the presence of the compound ([3]; strain 7023446108, MCR(−), compound at 10 μg (Table 2a: 10 ug/ml), listed as LC 100): <0.0975 µg/mL
Colistin MIC in the presence of the compound ([3]; strain 7033607097, MCR(−), compound at 2 μg): <0.0975 µg/mL
Colistin MIC in the presence of the compound ([3]; strain 7033607097, MCR(−), compound at 5 μg (Table 2a: 5 ug/ml)): 0.195 µg/mL
Colistin MIC in the presence of the compound ([3]; strain 7033607097, MCR(−), compound at 10 μg (Table 2a: 10 ug/ml)): <0.098 µg/mL
Colistin MIC in the presence of the compound ([3]; strain 7033607097, MCR(−), compound at 10 μg (Table 2a: 10 ug/ml), listed as LC 100): <0.0975 µg/mL
Colistin MIC in the presence of LC100 ([4]; strain KLPN 8852, LC 100 2 μg): >25 µg/mL
Colistin MIC in the presence of LC100 ([4]; strain KLPN 8852, LC 100 5 μg): 25 µg/mL
Colistin MIC in the presence of LC100 ([4]; strain KLPN 15588, LC 100 2 μg): 0.39 µg/mL
Colistin MIC in the presence of LC100 ([4]; strain KLPN 15588, LC 100 5 μg): <0.0975 µg/mL
Colistin MIC in the presence of LC100 ([4]; strain KLPN 24076, LC 100 2 μg): 0.39 µg/mL
Colistin MIC in the presence of LC100 ([4]; strain KLPN 24076, LC 100 5 μg): <0.0975 µg/mL
Colistin MIC in the presence of LC100 ([4]; strain KLPN 27025, LC 100 2 μg): 0.195 µg/mL
Colistin MIC in the presence of LC100 ([4]; strain KLPN 27025, LC 100 5 μg): <0.0975 µg/mL
activity against Gram positive strains ([5]; in words): good activity
antimicrobial effect on Gram positive bacteria ([5]; strain MRSA ATCC 43300): 3.125
antimicrobial effect on Gram positive bacteria ([5]; strain MRSA ATCC 700699): 3.125
antimicrobial effect on Gram positive bacteria ([5]; strain MRSA DM 21455): 3.125
antimicrobial effect on Gram positive bacteria ([5]; strain SA ATCC 6538): 3.125
antimicrobial effect on Gram positive bacteria ([5]; strain SA ATCC 29213): 3.125
antimicrobial effect on Gram positive bacteria ([5]; strain SA DM 4400R): 3.125
fluorescence of MCR-1 protein (quenching) (MCR-1 protein): the fluorescence decreases
calcein leakage / disruption of vesicles [6]: significant florescence was detected; also recorded: disrupts liposomes
